Assay results as given in US20050100561A1, “Use of topical compositions for the control of microbial diseases of the nail” (priority 2002, published 2005).
Marks after values point to notes of the source that are not given here.

What was measured:
onychomycosis = assay: Treatment of onychomycosis with topical copper silicate (cream or solution), patient trial; type: in vivo, human; conditions: for Clinical - 100% clear / Clinical - New growth clear / Complete cure (KOH negative, culture negative and 100% clear) / Mycology (KOH negative and culture negative) / Mycology (KOH negative or culture negative): interim, applied twice daily
Method: Subjects, not already receiving anti-fungal treatment, were assessed for clinical diagnosis of onychomycosis and photographs and nail clippings were taken. Those testing positive for onychomycosis were admitted to the trial.
The anti-fungal composition (cream or solution) was applied to the infected nail twice daily for the duration of the treatment.
Estimates of the nail area involved were made during clinical visits and photographs were taken. Nail clippings were collected for KOH and dermatophyte culture. […] Results
The results presented hereunder are interim results of a 12 month study. Patients entered the trial and commenced their treatment at different dates. […] Patients were assessed at 0 (commencement). 6 weeks and 12 weeks.

Trichophyton rubrum = conditions: modal value, n=26
[1] = tested on: T. mentagrophytes var interdigitale; conditions: modal value, n=19
T. mentagrophytes = conditions: modal value, n=12
T. tonsurans = conditions: modal value, n=10
Epidermophyton floccosum = conditions: modal value, n=11
Microsporum canis = conditions: modal value, n=9
M. gypseum = conditions: modal value, n=9
Aspergillus flavus = conditions: modal value, n=12
A. fumigatus = conditions: modal value, n=12
A. niger = conditions: modal value, n=14
A. terrus = conditions: modal value, n=7
Fusarium spp. = conditions: modal value, n=16
Scopulariopsis spp. = conditions: modal value, n=5
Scedosporium spp. = conditions: modal value, n=5
Candida albicans = conditions: modal value, n=10
C. tropicalis = conditions: modal value, n=10
C. parasilosis = conditions: modal value, n=10
C. glabrate = conditions: modal value, n=4
[2] = tested on: C. pseudotropicalis (kefyr); conditions: modal value, n=1
C. krusei = conditions: modal value, n=1
[3] = Post-treatment Week 13 (N = 18)
[4] = Post-treatment Week 13 (N = 18), = 39 weeks
[5] = Post-treatment Week 26 (N = 18)
[6] = Treatment time Week 12 (N = 18)
[7] = Treatment time Week 26 (N = 18)

copper silicate
Patients culture negative (onychomycosis; 13 weeks post-treatment): 55%
Patients "effectively treated" (onychomycosis; 26 weeks post treatment): 22%
% Nail infected 0% (clear), number of patients (onychomycosis; [3]): 3
% Nail infected 1-10%, number of patients (onychomycosis; [3]): 1
% Nail infected 11-50%, number of patients (onychomycosis; [3]): 6
% Nail infected >50%, number of patients (onychomycosis; [3]): 8
Dermatophyte culture Positive, number of patients (onychomycosis; [3]): 8
Infecting organism T. mentagrophytes v. interdigitale, number of patients (onychomycosis; [3]): 1
Infecting organism T. rubrum, number of patients (onychomycosis; [3]): 7
KOH Negative, number of patients (onychomycosis; [3]): 4
KOH Positive, number of patients (onychomycosis; [3]): 14
New growth Clear, number of patients (onychomycosis; [3]): 15
New growth Not clear, number of patients (onychomycosis; [3]): 3
Outcome Complete cure, number of patients (onychomycosis; [3]): 3
Outcome Effective treatment, number of patients (onychomycosis; [3]): 3
Outcome Mycological cure, number of patients (onychomycosis; [3]): 3
Dermatophyte culture Negative, number of patients (onychomycosis; [4]): 10
Outcome Mycological change (culture positive to culture negative), number of patients (onychomycosis; [4]): 7
Outcome Not effective, number of patients (onychomycosis; Post-treatment Week 13 (N = 18), includes 1 patient that is KOH negative): 8^@
% Nail infected 0% (clear), number of patients (onychomycosis; [5]): 3
% Nail infected 1-10%, number of patients (onychomycosis; [5]): 2
% Nail infected 11-50%, number of patients (onychomycosis; [5]): 6
% Nail infected >50%, number of patients (onychomycosis; [5]): 7
Dermatophyte culture Positive, number of patients (onychomycosis; [5]): 9
Infecting organism T. mentagrophytes v. interdigitale, number of patients (onychomycosis; [5]): 1
Infecting organism T. rubrum, number of patients (onychomycosis; [5]): 8
KOH Negative, number of patients (onychomycosis; [5]): 6
KOH Positive, number of patients (onychomycosis; [5]): 12
New growth Clear, number of patients (onychomycosis; [5]): 15
New growth Not clear, number of patients (onychomycosis; [5]): 3
Outcome Effective treatment, number of patients (onychomycosis; [5]): 4
Outcome Mycological change (culture positive to culture negative), number of patients (onychomycosis; [5]): 5
Outcome Mycological cure, number of patients (onychomycosis; [5]): 4
Outcome Complete cure, number of patients (onychomycosis; Post-treatment Week 26 (N = 18), = 52 weeks): 3
Dermatophyte culture Negative, number of patients (onychomycosis; Post-treatment Week 26 (N = 18), = 52 weeks, end of the trial): 9
Outcome Not effective, number of patients (onychomycosis; Post-treatment Week 26 (N = 18), includes 1 patient that is KOH negative): 9^@
% Nail infected 0% (clear), number of patients (onychomycosis; Treatment time Week 6 (N = 18)): 0
% Nail infected 1-10%, number of patients (onychomycosis; Treatment time Week 6 (N = 18)): 2
% Nail infected 11-50%, number of patients (onychomycosis; Treatment time Week 6 (N = 18)): 5
% Nail infected >50%, number of patients (onychomycosis; Treatment time Week 6 (N = 18)): 11
Dermatophyte culture Negative, number of patients (onychomycosis; Treatment time Week 6 (N = 18)): 10
Dermatophyte culture Positive, number of patients (onychomycosis; Treatment time Week 6 (N = 18)): 8
Infecting organism T. mentagrophytes v. interdigitale, number of patients (onychomycosis; Treatment time Week 6 (N = 18)): 1
Infecting organism T. rubrum, number of patients (onychomycosis; Treatment time Week 6 (N = 18)): 7
KOH Negative, number of patients (onychomycosis; Treatment time Week 6 (N = 18)): 4
KOH Positive, number of patients (onychomycosis; Treatment time Week 6 (N = 18)): 14
New growth Clear, number of patients (onychomycosis; Treatment time Week 6 (N = 18)): 11
New growth Not clear, number of patients (onychomycosis; Treatment time Week 6 (N = 18)): 7
Outcome Complete cure, number of patients (onychomycosis; Treatment time Week 6 (N = 18)): 0
Outcome Effective treatment, number of patients (onychomycosis; Treatment time Week 6 (N = 18)): 2
Outcome Mycological change (culture positive to culture negative), number of patients (onychomycosis; Treatment time Week 6 (N = 18)): 6
Outcome Mycological cure, number of patients (onychomycosis; Treatment time Week 6 (N = 18)): 4
Outcome Not effective, number of patients (onychomycosis; Treatment time Week 6 (N = 18), includes 2 patients that are KOH negative): 8^#
% Nail infected 0% (clear), number of patients (onychomycosis; [6]): 3
% Nail infected 1-10%, number of patients (onychomycosis; [6]): 1
% Nail infected 11-50%, number of patients (onychomycosis; [6]): 4
% Nail infected >50%, number of patients (onychomycosis; [6]): 10
Dermatophyte culture Negative, number of patients (onychomycosis; [6]): 11
Dermatophyte culture Positive, number of patients (onychomycosis; [6]): 7
Infecting organism T. mentagrophytes v. interdigitale, number of patients (onychomycosis; [6]): 1
Infecting organism T. rubrum, number of patients (onychomycosis; [6]): 6
KOH Negative, number of patients (onychomycosis; [6]): 4
KOH Positive, number of patients (onychomycosis; [6]): 14
New growth Clear, number of patients (onychomycosis; [6]): 16
New growth Not clear, number of patients (onychomycosis; [6]): 2
Outcome Complete cure, number of patients (onychomycosis; [6]): 2
Outcome Effective treatment, number of patients (onychomycosis; [6]): 3
Outcome Mycological change (culture positive to culture negative), number of patients (onychomycosis; [6]): 8
Outcome Mycological cure, number of patients (onychomycosis; [6]): 3
Outcome Not effective, number of patients (onychomycosis; Treatment time Week 12 (N = 18), includes 1 patient that is KOH negative): 7^@
% Nail infected 0% (clear), number of patients (onychomycosis; [7]): 3
% Nail infected 1-10%, number of patients (onychomycosis; [7]): 1
% Nail infected 11-50%, number of patients (onychomycosis; [7]): 8
% Nail infected >50%, number of patients (onychomycosis; [7]): 6
Dermatophyte culture Negative, number of patients (onychomycosis; [7]): 12
Dermatophyte culture Positive, number of patients (onychomycosis; [7]): 6
Infecting organism T. mentagrophytes v. interdigitale, number of patients (onychomycosis; [7]): 1
Infecting organism T. rubrum, number of patients (onychomycosis; [7]): 5
KOH Negative, number of patients (onychomycosis; [7]): 6
KOH Positive, number of patients (onychomycosis; [7]): 12
New growth Clear, number of patients (onychomycosis; [7]): 16
New growth Not clear, number of patients (onychomycosis; [7]): 2
Outcome Complete cure, number of patients (onychomycosis; [7]): 3
Outcome Effective treatment, number of patients (onychomycosis; [7]): 3
Outcome Mycological change (culture positive to culture negative), number of patients (onychomycosis; [7]): 7
Outcome Mycological cure, number of patients (onychomycosis; [7]): 5
Outcome Not effective, number of patients (onychomycosis; Treatment time Week 26 (N = 18), includes 1 patient that is KOH negative): 6^@
"Mycological cure" patients (onychomycosis; after 26 weeks): 28%
Patients with >50% of nail plate diseased having significant clinical improvement (reduction to <50% of the nail plate) (onychomycosis; at 26 weeks): 50%
"Mycological cure" rate (onychomycosis; at 52 weeks): 22%
Patients culture negative (onychomycosis; end of the trial): 50%
Patients culture negative (onychomycosis; end of treatment): 67%
Clinical - 100% clear (onychomycosis; 6 Weeks (n = 13)): 0 % of Patients
Clinical - New growth clear (onychomycosis; 6 Weeks (n = 13)): 61 % of Patients
Complete cure (KOH negative, culture negative and 100% clear) (onychomycosis; 6 Weeks (n = 13)): 0 % of Patients
Mycology (KOH negative and culture negative) (onychomycosis; 6 Weeks (n = 13)): 0 % of Patients
Mycology (KOH negative or culture negative) (onychomycosis; 6 Weeks (n = 13)): 53 % of Patients
Clinical - 100% clear (onychomycosis; 12 Weeks (n = 10)): 30 % of Patients
Clinical - New growth clear (onychomycosis; 12 Weeks (n = 10)): 70 % of Patients
Complete cure (KOH negative, culture negative and 100% clear) (onychomycosis; 12 Weeks (n = 10)): 20 % of Patients
Mycology (KOH negative and culture negative) (onychomycosis; 12 Weeks (n = 10)): 20 % of Patients
Mycology (KOH negative or culture negative) (onychomycosis; 12 Weeks (n = 10)): 80 % of Patients
Minimum Fungicidal Concentration (MFC) (Trichophyton rubrum): 0.0350 % w/w as Cu
Minimum Inhibitory Concentration (MIC) (Trichophyton rubrum): 0.0175 % w/w as Cu
Minimum Fungicidal Concentration (MFC) [1]: 0.0350 % w/w as Cu
Minimum Inhibitory Concentration (MIC) [1]: 0.0175 % w/w as Cu
Minimum Fungicidal Concentration (MFC) (T. mentagrophytes): 0.0350 % w/w as Cu
Minimum Inhibitory Concentration (MIC) (T. mentagrophytes): 0.0175 % w/w as Cu
Minimum Fungicidal Concentration (MFC) (T. tonsurans): 0.0350 % w/w as Cu
Minimum Inhibitory Concentration (MIC) (T. tonsurans): 0.0350 % w/w as Cu
Minimum Fungicidal Concentration (MFC) (Epidermophyton floccosum): 0.0350 % w/w as Cu
Minimum Inhibitory Concentration (MIC) (Epidermophyton floccosum): 0.0350 % w/w as Cu
Minimum Fungicidal Concentration (MFC) (Microsporum canis): 0.0700 % w/w as Cu
Minimum Inhibitory Concentration (MIC) (Microsporum canis): 0.0350 % w/w as Cu
Minimum Fungicidal Concentration (MFC) (M. gypseum): 0.1400 % w/w as Cu
Minimum Inhibitory Concentration (MIC) (M. gypseum): 0.0350 % w/w as Cu
Minimum Fungicidal Concentration (MFC) (Aspergillus flavus): >0.1400 % w/w as Cu
Minimum Inhibitory Concentration (MIC) (Aspergillus flavus): 0.1400 % w/w as Cu
Minimum Fungicidal Concentration (MFC) (A. fumigatus): >0.1400 % w/w as Cu
Minimum Inhibitory Concentration (MIC) (A. fumigatus): 0.0350 % w/w as Cu
Minimum Fungicidal Concentration (MFC) (A. niger): 0.1400 % w/w as Cu
Minimum Inhibitory Concentration (MIC) (A. niger): 0.0350 % w/w as Cu
Minimum Fungicidal Concentration (MFC) (A. terrus): >0.1400 % w/w as Cu
Minimum Inhibitory Concentration (MIC) (A. terrus): 0.0700 % w/w as Cu
Minimum Fungicidal Concentration (MFC) (Fusarium spp.): 0.0700 % w/w as Cu
Minimum Inhibitory Concentration (MIC) (Fusarium spp.): 0.0700 % w/w as Cu
Minimum Fungicidal Concentration (MFC) (Scopulariopsis spp.): >0.1400 % w/w as Cu
Minimum Inhibitory Concentration (MIC) (Scopulariopsis spp.): 0.0350 % w/w as Cu
Minimum Fungicidal Concentration (MFC) (Scedosporium spp.): >0.1400 % w/w as Cu
Minimum Inhibitory Concentration (MIC) (Scedosporium spp.): 0.0350 % w/w as Cu
Minimum Fungicidal Concentration (MFC) (Candida albicans): 0.0700 % w/w as Cu
Minimum Inhibitory Concentration (MIC) (Candida albicans): 0.0350 % w/w as Cu
Minimum Fungicidal Concentration (MFC) (C. tropicalis): 0.0700 % w/w as Cu
Minimum Inhibitory Concentration (MIC) (C. tropicalis): 0.0350 % w/w as Cu
Minimum Fungicidal Concentration (MFC) (C. parasilosis): 0.0350 % w/w as Cu
Minimum Inhibitory Concentration (MIC) (C. parasilosis): 0.0350 % w/w as Cu
Minimum Fungicidal Concentration (MFC) (C. glabrate): 0.1400 % w/w as Cu
Minimum Inhibitory Concentration (MIC) (C. glabrate): 0.0350 % w/w as Cu
Minimum Fungicidal Concentration (MFC) [2]: 0.0350 % w/w as Cu
Minimum Inhibitory Concentration (MIC) [2]: 0.0350 % w/w as Cu
Minimum Fungicidal Concentration (MFC) (C. krusei): 0.0175 % w/w as Cu
Minimum Inhibitory Concentration (MIC) (C. krusei): 0.0175 % w/w as Cu
